Laboratory results as given in ChEMBL document CHEMBL1201862, “PubChem BioAssay data set” (2004).
Calls of active or inactive are those of the source.

Key:
[1] = target: T1, 1-phosphatidylinositol 4,5-bisphosphate phosphodiesterase beta-3 (Homo sapiens, UniProt Q01970); assay: Fluorescence-based biochemical high throughput dose response assay to identify inhibitors of phospholipase C isozymes (PLC-B3).
T1 sequence (Q01970 whole entry): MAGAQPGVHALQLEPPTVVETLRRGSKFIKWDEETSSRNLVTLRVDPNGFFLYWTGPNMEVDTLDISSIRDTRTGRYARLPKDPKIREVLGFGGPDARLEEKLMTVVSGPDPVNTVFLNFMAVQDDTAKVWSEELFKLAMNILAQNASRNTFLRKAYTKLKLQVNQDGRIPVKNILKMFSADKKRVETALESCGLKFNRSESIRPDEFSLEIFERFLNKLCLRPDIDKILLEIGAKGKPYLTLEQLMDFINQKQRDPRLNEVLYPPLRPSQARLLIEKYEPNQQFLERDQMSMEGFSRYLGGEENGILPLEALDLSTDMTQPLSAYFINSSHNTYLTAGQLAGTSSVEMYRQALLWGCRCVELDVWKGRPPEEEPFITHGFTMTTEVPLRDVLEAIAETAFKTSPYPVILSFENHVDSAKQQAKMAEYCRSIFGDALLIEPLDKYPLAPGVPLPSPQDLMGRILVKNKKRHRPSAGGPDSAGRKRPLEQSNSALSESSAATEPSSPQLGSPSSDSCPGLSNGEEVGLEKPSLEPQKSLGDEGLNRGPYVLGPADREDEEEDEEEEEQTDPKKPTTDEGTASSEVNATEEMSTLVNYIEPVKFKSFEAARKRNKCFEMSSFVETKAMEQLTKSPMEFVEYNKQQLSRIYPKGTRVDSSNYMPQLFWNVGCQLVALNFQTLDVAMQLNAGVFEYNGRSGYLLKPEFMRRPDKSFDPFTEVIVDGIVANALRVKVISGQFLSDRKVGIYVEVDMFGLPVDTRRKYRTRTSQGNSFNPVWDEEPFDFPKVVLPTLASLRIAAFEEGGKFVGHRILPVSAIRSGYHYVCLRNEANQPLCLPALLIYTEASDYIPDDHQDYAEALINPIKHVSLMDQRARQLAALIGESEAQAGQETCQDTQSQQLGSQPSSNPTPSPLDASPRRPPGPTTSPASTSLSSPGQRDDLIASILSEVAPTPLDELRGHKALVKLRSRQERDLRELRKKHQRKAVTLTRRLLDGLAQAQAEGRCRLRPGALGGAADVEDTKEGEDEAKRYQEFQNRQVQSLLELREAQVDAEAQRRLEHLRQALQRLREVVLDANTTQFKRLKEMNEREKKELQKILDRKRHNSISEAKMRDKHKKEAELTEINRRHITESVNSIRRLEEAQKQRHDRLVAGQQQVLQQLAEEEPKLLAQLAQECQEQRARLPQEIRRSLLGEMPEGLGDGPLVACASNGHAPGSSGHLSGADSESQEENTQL

[2] = target: T2, 1-phosphatidylinositol 4,5-bisphosphate phosphodiesterase gamma-1 (Homo sapiens, UniProt P19174); assay: Counterscreen for inhibitors of phospholipase C isozymes (PLC-B3): Fluorescence-based biochemical high throughput dose response assay to identify inhibitors of phospholipase C isozymes (PLC-gamma1).
T2 sequence (P19174 whole entry): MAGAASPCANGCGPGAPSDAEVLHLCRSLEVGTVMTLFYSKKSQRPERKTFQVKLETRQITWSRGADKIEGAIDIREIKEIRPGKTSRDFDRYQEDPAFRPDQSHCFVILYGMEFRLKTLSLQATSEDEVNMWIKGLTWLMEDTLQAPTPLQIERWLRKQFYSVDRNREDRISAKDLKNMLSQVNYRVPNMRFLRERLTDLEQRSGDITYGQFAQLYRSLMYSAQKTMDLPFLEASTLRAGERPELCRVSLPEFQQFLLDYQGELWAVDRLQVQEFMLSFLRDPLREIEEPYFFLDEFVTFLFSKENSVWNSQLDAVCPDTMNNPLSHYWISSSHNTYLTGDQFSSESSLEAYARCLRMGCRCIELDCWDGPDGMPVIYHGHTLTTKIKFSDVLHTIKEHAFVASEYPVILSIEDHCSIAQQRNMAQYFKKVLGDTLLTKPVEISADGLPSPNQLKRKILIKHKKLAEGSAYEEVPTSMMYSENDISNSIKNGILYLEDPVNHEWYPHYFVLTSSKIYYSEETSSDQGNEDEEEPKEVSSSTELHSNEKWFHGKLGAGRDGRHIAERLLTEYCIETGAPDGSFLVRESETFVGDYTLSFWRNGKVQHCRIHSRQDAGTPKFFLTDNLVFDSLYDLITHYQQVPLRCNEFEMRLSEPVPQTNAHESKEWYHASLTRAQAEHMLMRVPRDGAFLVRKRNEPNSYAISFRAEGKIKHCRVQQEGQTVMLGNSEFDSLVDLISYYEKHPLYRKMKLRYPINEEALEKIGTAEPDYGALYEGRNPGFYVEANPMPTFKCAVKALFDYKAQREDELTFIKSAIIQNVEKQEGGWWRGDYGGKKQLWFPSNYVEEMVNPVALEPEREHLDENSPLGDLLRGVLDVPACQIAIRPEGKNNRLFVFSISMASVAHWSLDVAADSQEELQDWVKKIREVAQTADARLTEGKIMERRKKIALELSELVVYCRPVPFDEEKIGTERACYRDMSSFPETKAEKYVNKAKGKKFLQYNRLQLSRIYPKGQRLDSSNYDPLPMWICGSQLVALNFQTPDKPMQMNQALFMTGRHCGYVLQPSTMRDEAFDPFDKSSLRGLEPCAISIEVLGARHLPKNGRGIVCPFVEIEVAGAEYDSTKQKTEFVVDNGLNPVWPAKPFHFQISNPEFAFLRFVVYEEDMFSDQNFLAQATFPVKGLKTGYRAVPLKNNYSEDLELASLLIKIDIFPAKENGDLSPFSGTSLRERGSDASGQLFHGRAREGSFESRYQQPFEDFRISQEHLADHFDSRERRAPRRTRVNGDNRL

[3] = human group III sPLA2 inhibitors, dose response, biochemical, QFRET, IC50 (AID 743457);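 note: green fluorescence rise as the enzyme cleaves BODIPY PC-A2 in liposomes; potency for inhibition of the enzyme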
[4] = tested on: BJ; assay: cytotoxicity toward Ras-transformed BJeLR fibroblasts, dose response, cell-based, alamar blue fluorescence, cherrypicked samples (AID 2631); format: functional; conditions: Homo sapiens;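 note: confirmatory dose-response assay in RAS-dependent BJ fibroblasts engineered with TERT, LT and ST, with cytotoxicity read by fluorescence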
[5] = HEK293T cytotoxicity, dose response, cytotoxicity control for miR-122 modulator project, cell-based, activator set, cherry-pick (AID 720690); format: functional;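 note: HEK293T human cells scored for general mammalian cytotoxicity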
[6] = HEK293T cytotoxicity, dose response, cytotoxicity control for miR-122 modulator project, cell-based, inhibitor set, cherry-pick, set 2 (AID 720697); format: functional
[7] = target: T3, Fatty acid synthase (Homo sapiens, UniProt P49327); assay: FAS thioesterase domain inhibitors, dose response, biochemical, kinetic fluorescence intensity (AID 624326); format: functional;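 note: rate of fluorescence rise from hydrolysis of a fluorogenic O-methyl fluorescein ester substrate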
[8] = tested on: BJ; assay: cells; format: functional, cell-based; conditions: Homo sapiens
[9] = miR-122 activators in hepatoma reporter cells, dose response, cell-based, Huh7 psiCHECK-miR122, Renilla luciferase, cherry-picked (AID 651956); format: functional;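 note: huh7 hepatoma cells stably carrying a psiCHECK-2 miR-122 sensor plasmid; renilla luciferase signal reporting endogenous miR-122 activity after 48 h compound exposure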
[10] = cytotoxicity toward DRD oncogenic fibroblasts, dose response, cell-based, non-viral oncogenic, luminescence (AID 1934); format: functional; conditions: Homo sapiens
[11] = tested on: BJ; assay: cytotoxicity toward BJ-TERT-LT-ST fibroblasts, dose response, cell-based, RAS-independent, luminescence (AID 1935); format: functional; conditions: Homo sapiens;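 note: BJ fibroblasts immortalized with TERT plus LT and ST oncogenes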
[12] = target: T3, Fatty acid synthase; assay: FAS thioesterase domain inhibitors, dose response, biochemical, endpoint fluorescence intensity, uHTS hits (AID 624327); format: functional;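 note: fluorescence from hydrolysis of an O-methyl fluorescein acyl ester substrate by the enzyme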
[13] = tested on: BJ; assay: cytotoxicity toward BJ-TERT fibroblasts, dose response, cell-based, RAS-independent, luminescence (AID 1933); format: functional; conditions: Homo sapiens
[14] = target: T4, Long-chain-fatty-acid--AMP ligase FadD28 (Mycobacterium tuberculosis, UniProt P9WQ59); assay: Fluorescence polarization aasay to screen for inhibitors that compete for the binding of FadD28 to a bisubstrate Measured in Biochemical System Using Plate Reader - 2147-01_Inhibitor_Dose_CherryPick_Activity.; format: functional, Mycobacterium tuberculosis H37Rv
T4 sequence (P9WQ59 whole entry): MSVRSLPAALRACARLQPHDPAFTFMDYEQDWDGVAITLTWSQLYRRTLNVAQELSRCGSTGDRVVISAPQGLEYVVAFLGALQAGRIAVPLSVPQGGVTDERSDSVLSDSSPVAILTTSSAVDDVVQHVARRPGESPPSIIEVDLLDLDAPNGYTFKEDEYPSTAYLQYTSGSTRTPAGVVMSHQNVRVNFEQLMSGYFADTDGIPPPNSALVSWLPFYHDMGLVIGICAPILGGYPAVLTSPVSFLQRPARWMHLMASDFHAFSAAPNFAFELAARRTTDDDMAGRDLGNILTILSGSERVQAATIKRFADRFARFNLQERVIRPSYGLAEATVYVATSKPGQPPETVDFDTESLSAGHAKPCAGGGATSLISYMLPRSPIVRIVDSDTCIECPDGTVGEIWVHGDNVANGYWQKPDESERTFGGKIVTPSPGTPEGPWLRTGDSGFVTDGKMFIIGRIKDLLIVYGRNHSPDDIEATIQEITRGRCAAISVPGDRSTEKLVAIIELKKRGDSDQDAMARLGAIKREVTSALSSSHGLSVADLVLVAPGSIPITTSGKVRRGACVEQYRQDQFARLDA

[15] = target: T5, Rac GTPase-activating protein 1 (Homo sapiens, UniProt Q9H0H5); assay: MgcRacGAP GTPase-activating activity inhibitors, confirmation, biochemical, ADP Hunter fluorescence, primary and confirmatory (AID 624330); format: functional
T5 sequence (Q9H0H5 whole entry): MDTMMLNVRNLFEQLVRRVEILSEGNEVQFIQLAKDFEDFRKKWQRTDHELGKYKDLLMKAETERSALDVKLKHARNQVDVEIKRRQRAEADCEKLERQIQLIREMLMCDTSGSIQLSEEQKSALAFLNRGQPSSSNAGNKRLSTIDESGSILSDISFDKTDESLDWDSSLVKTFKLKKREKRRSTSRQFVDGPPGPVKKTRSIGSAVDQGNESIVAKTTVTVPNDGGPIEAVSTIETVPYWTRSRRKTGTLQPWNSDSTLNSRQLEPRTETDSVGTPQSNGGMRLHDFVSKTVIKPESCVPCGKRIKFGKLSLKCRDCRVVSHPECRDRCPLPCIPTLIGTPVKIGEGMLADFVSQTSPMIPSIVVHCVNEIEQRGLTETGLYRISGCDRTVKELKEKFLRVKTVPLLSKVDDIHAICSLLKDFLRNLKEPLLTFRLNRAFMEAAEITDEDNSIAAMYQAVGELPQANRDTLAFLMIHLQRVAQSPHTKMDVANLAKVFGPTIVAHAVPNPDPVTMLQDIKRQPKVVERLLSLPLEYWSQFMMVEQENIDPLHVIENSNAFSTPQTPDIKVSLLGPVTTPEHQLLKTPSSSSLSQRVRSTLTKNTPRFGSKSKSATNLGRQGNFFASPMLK

[16] = P. falciparum Dd2 growth inhibitors, dose response, SYBR Green, cherry-picked samples (AID 1159567); format: functional, cell-based
[17] = HepG2 cell cytotoxicity, dose response, cytotoxicity control, plate reader, dry powder samples (AID 1159569); format: functional, cell-based;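 note: inhibitor potency with signal falling toward the positive control level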
[18] = P. falciparum Dd2 growth inhibitors, dose response, SYBR Green, dry powder samples (AID 1159566); format: functional, cell-based;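 note: potency for growth inhibition with lower SYBR green DNA signal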
[19] = P. falciparum ATP4 D1247Y mutant growth inhibitors, dose response, NITD609-resistant line, SYBR Green, dry powder (AID 1159571); format: functional, cell-based;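 note: parasites synchronized at ring stage by sorbitol before testing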
[20] = P. falciparum 3D7-ScDHODH growth inhibitors, dose response, SYBR Green, dry powder samples (AID 1159570); format: functional, cell-based;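 note: parasite growth measured after 72 hours of compound exposure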

T3 sequence (P49327 whole entry, the tested form may be a part): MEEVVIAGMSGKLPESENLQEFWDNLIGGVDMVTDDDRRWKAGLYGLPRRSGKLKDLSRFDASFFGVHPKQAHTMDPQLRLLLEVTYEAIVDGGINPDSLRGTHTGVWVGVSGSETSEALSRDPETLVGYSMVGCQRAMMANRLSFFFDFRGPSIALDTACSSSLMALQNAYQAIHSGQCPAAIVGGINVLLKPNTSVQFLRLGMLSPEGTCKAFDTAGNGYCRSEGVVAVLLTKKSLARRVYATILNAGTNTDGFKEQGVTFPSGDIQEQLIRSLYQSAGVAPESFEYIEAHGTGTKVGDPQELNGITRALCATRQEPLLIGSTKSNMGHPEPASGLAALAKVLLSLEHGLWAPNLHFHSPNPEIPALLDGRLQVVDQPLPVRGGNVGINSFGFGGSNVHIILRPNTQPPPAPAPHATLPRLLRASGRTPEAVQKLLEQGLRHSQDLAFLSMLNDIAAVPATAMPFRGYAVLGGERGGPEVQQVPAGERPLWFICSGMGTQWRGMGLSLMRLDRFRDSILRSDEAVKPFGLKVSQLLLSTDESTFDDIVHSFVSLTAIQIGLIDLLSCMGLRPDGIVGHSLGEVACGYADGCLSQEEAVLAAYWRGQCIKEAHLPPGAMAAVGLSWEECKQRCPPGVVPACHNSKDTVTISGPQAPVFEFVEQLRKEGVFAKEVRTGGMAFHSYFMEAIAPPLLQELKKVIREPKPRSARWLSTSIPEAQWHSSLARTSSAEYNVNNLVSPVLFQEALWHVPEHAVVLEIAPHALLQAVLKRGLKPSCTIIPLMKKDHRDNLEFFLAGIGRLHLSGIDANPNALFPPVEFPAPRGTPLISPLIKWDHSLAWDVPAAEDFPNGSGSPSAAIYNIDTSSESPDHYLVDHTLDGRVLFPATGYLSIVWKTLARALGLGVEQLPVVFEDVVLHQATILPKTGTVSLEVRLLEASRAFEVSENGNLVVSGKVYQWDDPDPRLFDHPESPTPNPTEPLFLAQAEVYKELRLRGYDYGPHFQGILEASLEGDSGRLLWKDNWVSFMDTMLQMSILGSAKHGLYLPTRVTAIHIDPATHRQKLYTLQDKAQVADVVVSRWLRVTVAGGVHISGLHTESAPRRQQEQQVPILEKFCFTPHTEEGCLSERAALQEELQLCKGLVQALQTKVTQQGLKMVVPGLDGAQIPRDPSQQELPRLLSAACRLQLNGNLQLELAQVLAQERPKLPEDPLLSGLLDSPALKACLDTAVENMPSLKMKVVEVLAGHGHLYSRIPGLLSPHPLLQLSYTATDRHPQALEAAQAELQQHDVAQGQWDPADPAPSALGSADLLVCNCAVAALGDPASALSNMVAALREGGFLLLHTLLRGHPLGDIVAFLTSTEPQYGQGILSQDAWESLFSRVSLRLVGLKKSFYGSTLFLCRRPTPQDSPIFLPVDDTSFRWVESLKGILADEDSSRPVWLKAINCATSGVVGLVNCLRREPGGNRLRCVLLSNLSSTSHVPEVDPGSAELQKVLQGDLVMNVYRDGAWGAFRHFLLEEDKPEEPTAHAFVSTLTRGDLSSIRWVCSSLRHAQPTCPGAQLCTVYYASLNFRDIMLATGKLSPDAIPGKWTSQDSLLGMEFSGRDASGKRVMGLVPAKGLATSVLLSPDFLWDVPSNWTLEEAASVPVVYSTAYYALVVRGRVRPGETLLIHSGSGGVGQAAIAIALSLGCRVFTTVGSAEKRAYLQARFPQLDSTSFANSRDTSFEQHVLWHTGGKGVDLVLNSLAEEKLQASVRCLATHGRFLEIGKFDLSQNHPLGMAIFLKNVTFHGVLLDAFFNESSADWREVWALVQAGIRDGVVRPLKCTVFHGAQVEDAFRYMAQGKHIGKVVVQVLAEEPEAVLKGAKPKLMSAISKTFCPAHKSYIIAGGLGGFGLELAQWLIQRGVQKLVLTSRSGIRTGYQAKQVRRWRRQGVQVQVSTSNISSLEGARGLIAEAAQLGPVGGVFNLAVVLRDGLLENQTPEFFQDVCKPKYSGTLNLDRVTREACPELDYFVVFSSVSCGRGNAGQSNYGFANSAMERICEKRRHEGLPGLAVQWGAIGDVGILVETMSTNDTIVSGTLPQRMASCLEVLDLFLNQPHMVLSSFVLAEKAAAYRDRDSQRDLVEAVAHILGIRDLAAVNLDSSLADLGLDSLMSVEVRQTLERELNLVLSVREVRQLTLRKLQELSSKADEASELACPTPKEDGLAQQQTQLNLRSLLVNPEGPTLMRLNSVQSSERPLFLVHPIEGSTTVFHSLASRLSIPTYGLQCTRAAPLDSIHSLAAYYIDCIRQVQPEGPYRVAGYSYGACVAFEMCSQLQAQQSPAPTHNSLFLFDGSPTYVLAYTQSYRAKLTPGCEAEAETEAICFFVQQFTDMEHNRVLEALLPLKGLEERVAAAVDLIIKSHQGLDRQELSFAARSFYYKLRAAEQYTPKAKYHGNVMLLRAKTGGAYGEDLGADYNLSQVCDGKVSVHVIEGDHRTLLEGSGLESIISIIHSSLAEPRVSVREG

COc1ccc(CCNCc2c(OC)ccc3ccccc23)cc1
IC50 [1]: > 123 µM (inactive) | IC50 [2]: > 123 µM (inactive)

COc1ccc(N=Nc2nc(-c3ccccc3)c(-c3ccccc3)[nH]2)cc1
IC50 [3]: > 122 µM (inactive)

O=C(NC(Nc1ncc(S(=O)(=O)c2ccc([N+](=O)[O-])cc2)s1)(C(F)(F)F)C(F)(F)F)c1ccc(Cl)cc1
EC50 [4]: 83.6 µM (active) | AC50 [5]: 4.29 µM (active) | AC50 [6]: 9.01 µM (active) | IC50 [7]: 7.87 µM (active) | EC50 [8]: 52.1 µM (active) | AC50 [9]: 2.35 µM (active) | EC50 [10]: 12.4 µM (active) | EC50 [11]: 20.1 µM (active) | IC50 [12]: 9.12 µM (active) | EC50 [13]: 11 µM (inconclusive)

Sc1nnc(COc2ccc(Cl)cc2)n1-c1ccccc1
IC50 [3]: > 122 µM (inactive)

COc1ccccc1-n1c(CNCC2CCCO2)nc2ccccc2c1=O (configuration not stated)
IC50 [1]: > 122 µM (inactive) | IC50 [2]: > 122 µM (inactive)

CCN(CC)S(=O)(=O)c1cccc(C(=O)OCC(=O)c2ccc3c(c2)OCCO3)c1
AC50 [14]: > 100 µM (inactive)

CCc1cccc2c(C(=O)CN3C(=O)C(=O)N(C4CCCC4)C3=O)c[nH]c12
AC50 [14]: 32.3 µM (active)

O=C1CS(=O)(=O)c2ccccc2N1
IC50 [1]: > 123 µM (inactive) | IC50 [2]: 35.7 µM (inactive)

Cc1ccc(Nc2n[nH]c(=S)s2)cc1
IC50 [3]: > 122 µM (inactive) | IC50 [15]: 72.2 µM (active)

CN1C(=O)c2cc(NC(=O)c3ccc(C(F)(F)F)cc3)ccc2OC[C@@H]2O[C@H](CC(=O)NCc3ccc4c(c3)OCO4)CC[C@@H]21
AC50 [5]: 12.6 µM (active) | AC50 [6]: 28 µM (active) | AC50 [9]: 6.22 µM (active)

CNC[C@H]1Oc2cc(C#CC3CCCCC3)ccc2S(=O)(=O)N([C@H](C)CO)C[C@@H]1C
AC50 [5]: 28.8 µM (active) | AC50 [6]: 0.433 µM (active)

COc1ccc(NC(=O)Nc2ccc3c(c2)[C@@H]2C[C@H](CC(=O)N[C@@H](C)c4ccccc4)O[C@H](CO)[C@@H]2O3)cc1
AC50 [16]: 2.22 µM (active) | AC50 [17]: > 100 µM (inactive) | AC50 [18]: 1.62 µM (active) | AC50 [19]: 2.16 µM (active) | AC50 [20]: 35.3 µM (active)

COc1ccc2c3c(n(C)c2c1)[C@@H](CO)N(Cc1ccc(Cl)cc1)CC31CCN(CC2CC2)CC1
AC50 [16]: 1.86 µM (active) | AC50 [17]: 22 µM (active) | AC50 [18]: 1.67 µM (active) | AC50 [19]: 1.7 µM (active) | AC50 [20]: 2.64 µM (active)
